From ChEMBL document CHEMBL1201862, “PubChem BioAssay data set” (2004)
Active and inactive are the calls of the source.

Key:
Cytochrome P450 2D6 = Cytochrome P450 2D6 (Homo sapiens, UniProt P10635);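 further: CYP2D6 member of a cytochrome P450 panel assay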
Cytochrome P450 2C9 = Cytochrome P450 2C9 (Homo sapiens, UniProt P11712)
Cytochrome P450 1A2 = biological target: T1, Cytochrome P450 1A2 (Homo sapiens, UniProt P05177);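 further: PubChem cytochrome P450 panel assay, CYP1A2 panel member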
T1 sequence (P05177 whole entry): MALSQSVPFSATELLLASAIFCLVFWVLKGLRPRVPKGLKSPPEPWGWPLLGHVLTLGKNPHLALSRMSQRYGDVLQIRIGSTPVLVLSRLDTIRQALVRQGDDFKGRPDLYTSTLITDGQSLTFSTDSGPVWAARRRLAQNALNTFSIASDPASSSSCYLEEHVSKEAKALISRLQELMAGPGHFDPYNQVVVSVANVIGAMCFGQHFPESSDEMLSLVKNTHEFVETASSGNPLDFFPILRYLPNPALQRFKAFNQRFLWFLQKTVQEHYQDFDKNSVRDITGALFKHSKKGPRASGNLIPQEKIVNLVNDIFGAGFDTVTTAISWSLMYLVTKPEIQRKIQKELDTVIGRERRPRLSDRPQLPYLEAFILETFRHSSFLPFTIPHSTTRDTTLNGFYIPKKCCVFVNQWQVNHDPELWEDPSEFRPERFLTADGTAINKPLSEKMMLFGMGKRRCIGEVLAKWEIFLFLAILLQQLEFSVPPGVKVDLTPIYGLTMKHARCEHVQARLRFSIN

Cytochrome P450 3A4 = Cytochrome P450 3A4 (Homo sapiens, UniProt P08684);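 further: CYP3A4 tested as one member of a cytochrome P450 panel screen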
Chain of Cytochrome P450 3A4 (P08684 whole entry): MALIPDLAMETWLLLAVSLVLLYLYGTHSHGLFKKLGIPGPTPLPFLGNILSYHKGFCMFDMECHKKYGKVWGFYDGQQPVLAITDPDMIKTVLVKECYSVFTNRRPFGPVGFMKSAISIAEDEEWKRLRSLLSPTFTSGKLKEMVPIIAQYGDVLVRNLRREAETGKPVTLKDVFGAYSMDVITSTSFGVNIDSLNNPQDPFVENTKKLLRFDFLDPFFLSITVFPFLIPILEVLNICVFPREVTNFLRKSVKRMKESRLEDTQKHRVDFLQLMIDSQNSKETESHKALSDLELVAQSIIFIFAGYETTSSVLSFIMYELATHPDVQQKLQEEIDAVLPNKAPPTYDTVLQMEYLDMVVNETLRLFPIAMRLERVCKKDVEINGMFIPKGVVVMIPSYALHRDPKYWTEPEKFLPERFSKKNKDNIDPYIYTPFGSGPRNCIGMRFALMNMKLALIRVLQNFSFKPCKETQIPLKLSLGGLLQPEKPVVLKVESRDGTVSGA

[1] = biological target: T2, Calpain-2 catalytic subunit (Sus scrofa, UniProt P43367); test: m-calpain protease blockers, concentration series – biochemical, fluorogenic peptide substrate, dose response (AID 1420); type: functional
T2 sequence (P43367 whole entry): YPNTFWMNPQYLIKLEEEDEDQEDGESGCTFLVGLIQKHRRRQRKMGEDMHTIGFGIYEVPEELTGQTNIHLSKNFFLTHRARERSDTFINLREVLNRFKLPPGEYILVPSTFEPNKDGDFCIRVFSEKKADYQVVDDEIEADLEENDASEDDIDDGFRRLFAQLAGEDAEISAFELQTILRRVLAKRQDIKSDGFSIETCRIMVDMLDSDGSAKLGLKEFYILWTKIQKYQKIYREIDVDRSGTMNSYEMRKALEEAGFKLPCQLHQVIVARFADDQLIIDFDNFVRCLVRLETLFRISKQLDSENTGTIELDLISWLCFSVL

Cytochrome P450 2C19 = Cytochrome P450 2C19 (Homo sapiens, UniProt P33261); test: Cytochrome panel assay with activity outcomes. Panel member name: p450-cyp2c19 Compounds with AC50 equal or less than 10 uM are considered active; type: functional
Chain of Cytochrome P450 2C19 (P33261 whole entry): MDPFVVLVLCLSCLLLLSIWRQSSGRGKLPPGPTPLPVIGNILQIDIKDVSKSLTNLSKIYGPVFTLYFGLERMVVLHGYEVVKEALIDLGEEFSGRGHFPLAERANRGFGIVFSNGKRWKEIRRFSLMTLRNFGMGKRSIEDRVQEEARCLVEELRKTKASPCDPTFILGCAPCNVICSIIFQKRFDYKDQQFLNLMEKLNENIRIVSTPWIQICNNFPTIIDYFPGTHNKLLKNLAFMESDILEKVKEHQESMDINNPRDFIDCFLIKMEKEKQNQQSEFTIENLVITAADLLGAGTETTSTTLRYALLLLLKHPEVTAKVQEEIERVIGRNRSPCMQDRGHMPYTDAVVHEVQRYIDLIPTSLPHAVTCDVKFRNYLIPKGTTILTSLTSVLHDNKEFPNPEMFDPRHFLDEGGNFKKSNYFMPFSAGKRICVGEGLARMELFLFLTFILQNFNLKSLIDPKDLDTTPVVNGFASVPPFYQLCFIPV

H9c2 = test: cells; type: functional, cell-based; details: Rattus norvegicus, H9c2, Myocardium;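 further: confirmatory concentration-response retest of ultra-high-throughput screening hits for modulation of myocardial damage; cell death induced by hydrogen peroxide oxidative stress; compound pretreatment for 60 min then peroxide exposure for 2 h; potency is for protecting the cells against peroxide damage rather than for killing them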
P388/ADR = test: cells; type: functional; details: Mus musculus
SN12K1 = test: cells; type: functional; details: Homo sapiens
P388 = test: cells; type: functional; details: Mus musculus
[2] = viability of PTEN-deleted HCT116 cells – cell-based, HCT116 PTEN knockout, dose response (AID 1047); type: functional;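 further: HCT116 colon tumor cells with PTEN knocked out; cells exposed to compound for 60 hours before readout; potency for loss of cell viability measured by luminescence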
[3] = viability of HCT116 lacking mutant beta-catenin – cell-based, human colon tumor, dose response (AID 1045); type: functional;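 further: HCT116 colon tumor cells with beta catenin knocked out; cells exposed to compound for 60 hours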
[4] = blockers of HIV-1 envelope-mediated cell-cell fusion – cherry-pick, dose response (AID 652057); type: functional, cell-based
[5] = HIV-1 AD8 envelope cell-cell fusion blockers – cherry-pick, dose response (AID 652062); type: functional, cell-based;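 further: luciferase signal from cell-cell fusion driven by HIV-1 clade B AD8 Env; potency is for inhibitors of fusion seen as a drop in luminescence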
[6] = NIH-3T3 fibroblast cytotoxicity, dose response, cytotoxicity control, cell-based, fluorescence, Alamar Blue, secondary assay (AID 2327); type: functional;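 further: NIH-3T3 mouse fibroblasts cultured with fluconazole at 8 µg/mL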
[7] = test system: Streptococcus sp. 'group A'; test: Streptococcus pyogenes SK(-)GAS viability under kanamycin – luminescence, BacTiterGlo, confirmation, counter-screen for streptokinase expression inhibitor project, dose response (AID 1900); type: functional, organism-based
Streptococcus = test: GAS UMAA2166 growth inhibition – luminescence, BacTiterGlo, counter-screen for streptokinase expression inhibitor project, dose response (AID 1915); type: functional, organism-based;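 further: potency for reduction of bacterial viability or growth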
INS1 = test: INS-1E survival protection against cytokine death – cell-based, luminescence, retest, dose response (AID 449756); type: functional; details: Rattus norvegicus;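 further: cell death triggered by IL-1 beta plus TNF-alpha plus IFN-gamma mixture; protective hits raise ATP signal compared with cytokine alone wells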

Chain of Cytochrome P450 2C9 (P11712 whole entry): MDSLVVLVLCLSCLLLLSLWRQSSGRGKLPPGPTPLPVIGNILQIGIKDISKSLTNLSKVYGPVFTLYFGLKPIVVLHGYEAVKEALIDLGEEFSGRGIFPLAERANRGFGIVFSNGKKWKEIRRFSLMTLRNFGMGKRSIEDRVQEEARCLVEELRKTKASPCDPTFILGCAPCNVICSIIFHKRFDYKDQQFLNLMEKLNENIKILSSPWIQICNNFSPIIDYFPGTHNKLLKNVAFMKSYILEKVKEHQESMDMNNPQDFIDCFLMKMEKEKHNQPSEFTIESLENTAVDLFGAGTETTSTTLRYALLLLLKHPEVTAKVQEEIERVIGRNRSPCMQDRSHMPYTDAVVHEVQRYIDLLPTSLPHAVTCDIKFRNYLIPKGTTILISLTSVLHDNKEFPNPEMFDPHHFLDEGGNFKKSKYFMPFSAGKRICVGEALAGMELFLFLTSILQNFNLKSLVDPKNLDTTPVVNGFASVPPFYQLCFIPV
Chain of Cytochrome P450 2D6 (P10635 whole entry): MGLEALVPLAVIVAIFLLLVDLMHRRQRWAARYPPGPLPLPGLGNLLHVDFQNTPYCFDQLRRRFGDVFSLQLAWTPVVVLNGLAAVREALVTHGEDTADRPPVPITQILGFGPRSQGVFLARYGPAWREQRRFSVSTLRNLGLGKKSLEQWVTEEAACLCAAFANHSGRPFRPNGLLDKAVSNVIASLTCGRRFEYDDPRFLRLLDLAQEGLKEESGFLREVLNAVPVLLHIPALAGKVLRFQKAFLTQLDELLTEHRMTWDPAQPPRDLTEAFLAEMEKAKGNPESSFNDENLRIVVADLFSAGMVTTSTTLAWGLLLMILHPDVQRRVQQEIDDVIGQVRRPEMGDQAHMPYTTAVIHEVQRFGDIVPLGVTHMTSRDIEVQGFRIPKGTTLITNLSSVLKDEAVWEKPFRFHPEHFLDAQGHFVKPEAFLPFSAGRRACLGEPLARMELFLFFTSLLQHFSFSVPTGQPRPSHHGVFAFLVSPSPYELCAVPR

Structure (SMILES)	GI50 (P388/ADR)	GI50 (SN12K1)	GI50 (P388)	further results
CC(=O)N1c2c(cc(Br)cc2S(=O)(=O)NCC2COc3ccccc3O2)CC1C (centres undefined)	–	–	–	AC50 (Cytochrome P450 2D6): 17.8 µM (inconclusive); AC50 (Cytochrome P450 2C9): inconclusive
CCCN(CCC)C[C@@H]1CCCCN1CCNC(=O)N1c2ccccc2C(=O)Nc2cccnc21	–	–	–	AC50 (Cytochrome P450 1A2): 25.1 µM (inconclusive); AC50 (Cytochrome P450 3A4): 15.8 µM (inconclusive); AC50 (Cytochrome P450 2C9): inconclusive
CCOc1ccc(OCc2ccc(C(=O)N3CCCC(C)C3)cc2)cc1 (centres undefined)	–	–	–	IC50 [1]: 10.5 µM (active)
COc1cccc(CNc2ccc([N+](=O)[O-])c(NCC(=O)O)n2)c1	–	–	–	IC50 [1]: 5.38 µM (active)
O=C1c2cccc([N+](=O)[O-])c2C(=O)N1c1ncn[nH]1	–	–	–	AC50 (Cytochrome P450 2C19): inconclusive; AC50 (Cytochrome P450 1A2): 3.16 µM (inconclusive); AC50 (Cytochrome P450 3A4): 3.98 µM (inconclusive); AC50 (Cytochrome P450 2C9): inconclusive
Cc1ccc(CNc2nc(Cl)c(C#N)s2)cc1	–	–	–	IC50 [1]: 4.33 µM (not active)
CCOC(=O)c1sc(SCC(=O)Nc2ccc(N(C)C)cc2)nc1N	–	–	–	IC50 [1]: 30.7 µM (not active)
CCCc1cc(-c2nnc(S)n2CC(C)C)cs1	–	–	–	IC50 [1]: > 50 µM (not active)
O=C(NCC(=O)N(c1ccc(F)cc1)C(C(=O)NC1CCCC1)c1cccnc1)c1cccs1 (centres undefined)	–	–	–	IC50 [1]: < 0.4 µM (not active)
O=C(Nc1ccccc1N1CCOCC1)c1ccccc1[N+](=O)[O-]	–	–	–	AC50 (Cytochrome P450 1A2): 12.6 µM (inconclusive); AC50 (Cytochrome P450 2C9): inconclusive
COc1ccc(Oc2ncc3nc(-c4cn(C)c5ccccc45)c(=O)n(CCC#N)c3n2)cc1	–	–	–	AC50 (Cytochrome P450 1A2): 2 µM (inconclusive); AC50 (Cytochrome P450 2C9): inconclusive
Cc1noc(C)c1COC(=O)CNC(=O)c1cccc(F)c1	–	–	–	IC50 [1]: > 50 µM (not active)
Cc1cccc(OCCC(=O)Nc2ccc(C)c(S(=O)(=O)N3CCCCC3)c2)c1	–	–	–	IC50 [1]: 5.33 µM (not active)
COc1cc(-c2nnc(-c3ccc(N4CCOCC4)cc3)o2)cc(OC)c1OC	–	–	–	IC50 (H9c2): > 79 µM (inactive); AC50 (Cytochrome P450 3A4): 7.94 µM (inconclusive); AC50 (Cytochrome P450 2C9): inconclusive
CNc1nc(-c2ccccc2Cl)nc2ccccc12	–	–	–	AC50 (Cytochrome P450 2D6): 39.8 µM (inconclusive); AC50 (Cytochrome P450 2C9): inconclusive
CNC(=O)OCc1nc(SSC(C)(C)C)n(C)c1COC(=O)NC	2.47 µM (inactive)	5.13 µM (inactive)	1.12 µM (inactive)	–
O=NN(CCCl)C(=O)N[C@H]1CC[C@@H](C(=O)O)CC1	5.26 µM (inactive)	98.6 µM (inactive)	5.14 µM (inactive)	–
ClCc1nnc2n1-c1ccc(Cl)cc1SC2	1.66 µM (inactive)	2.83 µM (inactive)	0.927 µM (active)	–
CCOC(=O)C1=C(c2ccccc2)N=c2s/c(=C\c3ccc(O)cc3)c(=O)n2C1c1cccs1 (centres undefined)	–	–	–	EC50 [2]: 19.7 µM (active); EC50 [3]: 17.9 µM (active); AC50 (Cytochrome P450 2C19; read-out: AC50): 3.98 µM (inconclusive); AC50 (Cytochrome P450 2C9): inconclusive
Cc1c(N=NN(C)C)cc[n+]([O-])c1C	> 100 µM (inactive)	> 100 µM (inactive)	> 100 µM (inactive)	–
C=C/C(C)=C/[C@H](C)C(=O)C[C@H](O)CC1CC(=O)NC(=O)C1	27.2 µM (inactive)	35.5 µM (inactive)	9.86 µM (inactive)	–

Structure (SMILES)	GI50 (P388/ADR)	GI50 (SN12K1)	GI50 (P388)	further results
O=c1cnn(C2OC(CO)C(O)C2O)c(=S)[nH]1 (centres undefined)	0.933 µM (active)	3.06 µM (inactive)	1.92 µM (inactive)	–
C#CC[C@@]12CC(=O)C[C@@H]1CCC1(C2)OCCO1.C#CC[C@]12CC(=O)CC[C@H]1CC(=O)C2	36.6 µM (inactive)	> 100 µM (inactive)	23.7 µM (inactive)	–
N/C(=N\O)N/N=C\c1cc([N+](=O)[O-])cc([N+](=O)[O-])c1O	7.59 µM (inactive)	0.743 µM (active)	2.3 µM (inactive)	–
CCOC(=O)C(N)CSC(=O)NC (centres undefined)	12.3 µM (inactive)	44.1 µM (inactive)	30.1 µM (inactive)	–
C/C([O-])=C(/c1nc(-c2ccc([N+](=O)[O-])o2)no1)[n+]1cc(C)ccc1C	> 100 µM (inactive)	13.4 µM (inactive)	54.8 µM (inactive)	–
CSc1nc2c(ncn2C2OCC(O)C(O)C2O)c(=O)n1C (centres undefined)	> 100 µM (inactive)	> 100 µM (inactive)	> 100 µM (inactive)	–
C[C@@H]1CN([C@@H](C)CO)C(=O)c2cccc(NC(=O)C3CCCCC3)c2O[C@H]1CN(C)CC1CCCCC1	–	–	–	AC50 [4]: 3.12 µM (active); AC50 [5]: 67.1 µM (active)
C[C@H](CO)N1C[C@H](C)[C@H](CN(C)S(=O)(=O)c2ccc(F)cc2)Oc2ccc(NS(=O)(=O)c3ccccc3)cc2CC1=O	–	–	–	AC50 [4]: 16.8 µM (active); AC50 [5]: 28.2 µM (active)
C[C@H](C(=O)N(C)C[C@@H]1OCc2ccccc2-c2ccccc2C(=O)N([C@@H](C)CO)C[C@@H]1C)c1ccccc1	–	–	–	AC50 [4]: < 0.26 µM (active); AC50 [5]: < 0.26 µM (active)
C[C@H](CO)N1C[C@H](C)[C@H](CN(C)S(=O)(=O)c2cccs2)Oc2ccc(NC(=O)C3CCCCC3)cc2CC1=O	–	–	–	AC50 [4]: 0.436 µM (active); AC50 [5]: 5.23 µM (active)
CCOC(=O)c1ccc(N[C@@H]2c3cc4c(cc3C(c3cc(OC)c(O)c(OC)c3)[C@H]3C(=O)OCC32)OCO4)cc1 (some centres undefined)	0.0256 µM (active)	< 0.01 µM (active)	< 0.01 µM (active)	–
COc1cc(C2c3cc4c(cc3[C@@H](Nc3cccc(C(C)=O)c3)C3COC(=O)[C@H]23)OCO4)cc(OC)c1O (some centres undefined)	0.124 µM (active)	< 0.0361 µM (active)	< 0.01 µM (active)	–
O=C(NC(c1ccccc1)C(O)C(=O)OCc1ccc2c(c1)C(=O)c1ccccc1C2=O)c1ccccc1 (centres undefined)	33.8 µM (inactive)	1.84 µM (inactive)	90.2 µM (inactive)	–
COc1cc(C2c3cc4c(cc3[C@@H](Nc3ccc(N5CCOCC5)cc3)C3COC(=O)[C@H]23)OCO4)cc(OC)c1O (some centres undefined)	0.0735 µM (active)	1 µM (active)	< 0.01 µM (active)	–
CN(C(=O)c1ccc(OCCCC(=O)O)c(Cl)c1Cl)C1CCCC1	> 100 µM (inactive)	> 89.5 µM (inactive)	> 100 µM (inactive)	–
CO[C@H]1C[C@](C)(O)Cc2cc3c(c(O)c21)C(=O)c1c(O)cc2c(c1C3=O)O[C@@H]1O[C@@]2(C)[C@H](O)[C@@H](N(C)C)[C@@H]1O	1.21 µM (inactive)	0.0736 µM (active)	0.054 µM (active)	–
CCCCCCCCCCCC1=C(O)C(=O)C=C(O)C1=O [EMBELIN]	9.66 µM (inactive)	3.74 µM (inactive)	1.78 µM (inactive)	EC50 [6]: 5.02 µM (inconclusive); EC50 [7]: 1.58 µM (active); EC50 (Streptococcus): 3.32 µM (active)
COc1ccc2cc1Oc1ccc(cc1)C[C@H]1c3cc(c(OC)cc3CCN1C)Oc1c(O)c(OC)cc3c1[C@H](C2)N(C)CC3 [FANGCHINOLINE]	2.58 µM (inactive)	18.3 µM (inactive)	2 µM (inactive)	AC50 (INS1): 5.84 µM (active)
CC(=O)NCCCCCCNC(C)=O [HEXAMETHYLENEBISACETAMIDE]	3520 µM (inactive)	9930 µM (inactive)	4260 µM (inactive)	–
O=C(O)Cc1nn(Cc2ccc(Br)cc2F)c(=O)c2ccccc12 [PONALRESTAT]	–	–	–	AC50 (Cytochrome P450 1A2): 31.6 µM (inconclusive); AC50 (Cytochrome P450 2C9): inconclusive
